Patent publication EP0623024B1, “PHARMACEUTICAL BACTERIOCIN COMPOSITIONS AND THEIR USE FOR TREATING GASTROINTESTINAL DISORDERS” (APPLIED MICROBIOLOGY, INC., priority 1992, dated 1993)
Values joined by “and” are separate entries in the source; they are usually repeats but may differ in a detail not shown here. Equal entries are not always repeated. Marks after values point to notes of the source that are not given here. Ends that are not written are not given here.

Tests used:
[1] = tested on: Campylobacter jejuni ATCC29428; assay: germicidal suspension assay; settings: nisin 0 or 100 µg/ml, 37°C
Helicobacter pylori [2] = assay: germicidal suspension assay; settings: nisin 0 or 100 µg/ml, 37°C
Escherichia coli = assay: germicidal suspension assay of chelator-enhanced nisin in acid vehicles; type: cell-based; settings: for % survival at 1 min: 37°C
Experimental: The rapid activities of various chelator-enhanced nisin formulations were evaluated in acid vehicles in a germicidal suspension assay.
E. coli cells from an overnight Trypticase soy nutrient agar (TSA) were resuspended to a density measured as an absorbance of 1.0 at 600 nm in sterile ddH2O. The reaction of the cells with each of the bactericidal test formulations analyzed was started by addition of 30 µl of cells to 970 µl of test formulation. The reaction mixture was incubated at 37°C for at least 1 minute and then centrifuged in a microfuge for 1 minute. The cell pellet was washed by resuspension in 1 ml of neutralization buffer. (The neutralization buffer: 50 mM Tris-HCl, pH 7.0, 5 mM MgSO4, 20 mM CaC12, 0.1 M NaCl and 0.1% gelatin was prepared by first making Tris buffer and adjusting the pH. The salts and gelatin were then added and the solution stirred with heat until the solution was clear. The solution was then autoclaved for 20 min. The neutralization buffer was used without dilution.) The cells were centrifuged in a microfuge for 1 minute and resuspended in 1 ml of neutralization buffer. The viable count was determined by spreading 100 µl of bacterial suspension and serial dilutions thereof in neutralization buffer on nutrient agar and scoring surviving colonies after 24 h at 37°C. Percent survival relative to untreated controls was calculated from the scored values.
In Table 1 and subsequent Tables 2, 4 and 8-13 values preceded by "<" represent the percent survival figures, based on the initial concentration of viable bacteria (expressed as colony forming units (cfu) /ml) in the assayed bacterial suspension and the aliquot volume of said suspension taken for assay, corresponding to the detection of no surviving colonies.

Helicobacter pylori [3] = assay: germicidal suspension assay; type: cell-based; settings: 37°C
E. coli strain ATCC8739 = assay: nisin-citrate agar assay (growth inhibition on nutrient agar); type: cell-based
Source text: However, nisin in the presence of citrate is active against gram negative bacteria. […] This nisin-citrate agar assay has much more general applicability. The assay provides a method for screening potential agents other than citrate in combination with nisin for their potential properties as enhancers of nisin's inherent bactericidal activity. Examples of other organic acids in combination with nisin would include acetate, propionate, lactate, succinate, fumarate, malonate, adipate, sorbate, phosphate and ascorbate.
The nisin-citrate agar assay is performed as follows. E. coli is resuspended to an optical density of 1.0 at A600. A 100 µl sample of the bacterial suspension is spread uniformly on Trypticase Soy nutrient agar (TSA) supplemented with various concentrations of citrate (eg. 0.1%, 0.3%, 1.0%, 3.0%) and incubated for 1 hour at 37°C. A nisin stock solution and serial dilutions thereof in 0.1% bovine serum albumin (BSA), are prepared and 5 µl are taken from each and deposited onto the growing bacterial lawn. The TSA plates are then incubated for 24 hours at 37°C. After 24 hours at 37°C, E. coli grown on TSA supplemented with citrate form a confluent lawn. […] The effectiveness of nisin against the gram negative bacteria can be assessed from determining the minimum amount of nisin required to produce a clear zone of growth inhibition. As the concentration of citrate in the nutrient agar is increased, less nisin is required to inhibit the growth of E. coli, as is illustrated by the data shown in Table 6.

[4] = tested on: Campylobacter jejuni ATCC29428; assay: germicidal suspension assay; type: cell-based; settings: for % survival at 5 min: pH 5.0, nisin 100 µg/ml, 37°C

## O=C(O)CC(O)(CC(=O)O)C(=O)O [Citrate]
[1]; 0.3 % w/v citrate pH 5.0
  % survival at 5 min: <6.4x10^-3%
[1]; 1.0 % w/v citrate pH 5.0
  % survival at 5 min: <6.4x10^-3%
Helicobacter pylori [2]; strain ATCC 43504, 0.1% citrate adjusted to pH 5.0
  % survival at 5 min: 68.5^d %
Helicobacter pylori [2]; strain ATCC 43504, 0.3% citrate adjusted to pH 5.0
  % survival at 5 min: 100^e %
Helicobacter pylori [2]; strain ATCC 43579, 0.1% citrate adjusted to pH 2.5
  % survival at 5 min: <5.0x10^-4%
Helicobacter pylori [2]; strain ATCC 43579, 0.1% citrate adjusted to pH 3.0
  % survival at 5 min: 1.1x10^-3%
Helicobacter pylori [2]; strain ATCC 43579, 0.1% citrate adjusted to pH 5.0
  % survival at 5 min: 97.2^b %

## nisin (ITSISLCTPGCKTGALMGCNMKTATCHCSIHVSK; also: lantibiotic nisin A: thioether rings and dehydrated residues not placed; UniProt P13068 24-57, looked up) [lanthionine-containing bacteriocin]
Escherichia coli; 0.1 % w/v acetate pH 3.5, nisin 100 µg/ml and/or EDTA 1.0 mM, or acetate alone
  % survival at 1 min: 9.6%
Escherichia coli; 0.1 % w/v lactate pH 3.5, nisin 100 µg/ml and/or EDTA 1.0 mM, or lactate alone
  % survival at 1 min: 4.4%
Escherichia coli; 0.1 % w/v succinate pH 3.5, nisin 100 µg/ml and/or EDTA 1.0 mM, or succinate alone
  % survival at 1 min: 18.3%
Escherichia coli; 0.3 % w/v acetate pH 3.5, nisin 100 µg/ml and/or EDTA 1.0 mM, or acetate alone
  % survival at 1 min: 70%
Escherichia coli; 0.3 % w/v lactate pH 3.5, nisin 100 µg/ml and/or EDTA 1.0 mM, or lactate alone
  % survival at 1 min: 0.24%
Escherichia coli; 0.3 % w/v succinate pH 3.5, nisin 100 µg/ml and/or EDTA 1.0 mM, or succinate alone
  % survival at 1 min: 66.6%
Escherichia coli; 1.0 % w/v acetate pH 3.5, nisin 100 µg/ml and/or EDTA 1.0 mM, or acetate alone
  % survival at 1 min: 100%
Escherichia coli; 1.0 % w/v lactate pH 3.5, nisin 100 µg/ml and/or EDTA 1.0 mM, or lactate alone
  % survival at 1 min: 17.8%
Escherichia coli; 1.0 % w/v succinate pH 3.5, nisin 100 µg/ml and/or EDTA 1.0 mM, or succinate alone
  % survival at 1 min: 83.4%
Escherichia coli; 3.0 % w/v acetate pH 3.5, nisin 100 µg/ml and/or EDTA 1.0 mM, or acetate alone
  % survival at 1 min: 100%
Escherichia coli; 3.0 % w/v lactate pH 3.5, nisin 100 µg/ml and/or EDTA 1.0 mM, or lactate alone
  % survival at 1 min: 26.7%
Escherichia coli; 3.0 % w/v succinate pH 3.5, nisin 100 µg/ml and/or EDTA 1.0 mM, or succinate alone
  % survival at 1 min: 28.4%
Escherichia coli; each agent by itself
  survival of E. coli on exposure to the agent by itself: unaffected
Escherichia coli; pH 2.0, 20 mM Na acetate buffer, nisin 100 µg/ml and/or EDTA 1.0 mM
  % survival at 1 min: 0.28%
Escherichia coli; pH 2.5, 20 mM Na acetate buffer, nisin 100 µg/ml and/or EDTA 1.0 mM
  % survival at 1 min: 3.37%
Escherichia coli; pH 3.0, 20 mM Na acetate buffer, nisin 100 µg/ml and/or EDTA 1.0 mM
  % survival at 1 min: 4.43%
Escherichia coli; pH 3.5, 20 mM Na acetate buffer, nisin 100 µg/ml and/or EDTA 1.0 mM
  % survival at 1 min: 100%
Escherichia coli; pH 4.0, 20 mM Na acetate buffer, nisin 100 µg/ml and/or EDTA 1.0 mM
  % survival at 1 min: 100%
Helicobacter pylori [3]; strain ATCC 43504, EDTA 0, nisin 100 µg/ml, pH 5.0, incubated in presence of 20 mM acetate
  % survival at 5 min: 7.03^e %
Helicobacter pylori [3]; strain ATCC 43504, citrate 0, nisin 100 µg/ml, 20 mM acetate, pH 5.0, two experiments (initial count 2.7 x 10^5 and 3.7 x 10^4 cfu/ml)
  % survival at 5 min: 0.69^d % and 4.86^e %
Helicobacter pylori [3]; strain ATCC 43504, pH 5.0, citrate 0, nisin 100 µg/ml
  % survival at 5 min: 0.043%
Helicobacter pylori [3]; strain ATCC 43504, pH 7.0, citrate 0, nisin 100 µg/ml
  % survival at 5 min: 2.08%
Helicobacter pylori [3]; strain ATCC 43526, pH 7.0, EDTA 0, nisin 100 µg/ml
  % survival at 5 min: 5.88%
Helicobacter pylori [3]; strain ATCC 43579, citrate 0, nisin 100 µg/ml, 20 mM acetate, pH 5.0, average of 5 experiments
  % survival at 5 min: 0.30^c %
Helicobacter pylori [3]; strain ATCC 43579, citrate 0, nisin 100 µg/ml, 20 mM acetate, pH 5.0, single experiment
  % survival at 5 min: 8.6x10^-3 ^e %
Helicobacter pylori [3]; strain ATCC 43579, nisin 10 µg/ml, without or with 0.1% citrate pH 5.0
  % survival at 5 min: 1.41%
Helicobacter pylori [3]; strain ATCC 43579, nisin 30 µg/ml, without or with 0.1% citrate pH 5.0
  % survival at 5 min: 0.39%
Helicobacter pylori [3]; strain ATCC 43579, nisin 100 µg/ml, without or with 0.1% citrate pH 5.0
  % survival at 5 min: 0.085%
Helicobacter pylori [3]; strain ATCC 43579, nisin 300 µg/ml, without or with 0.1% citrate pH 5.0
  % survival at 5 min: 0.0056%
Helicobacter pylori [3]; strain ATCC 43579, pH 5.0, EDTA 0, nisin 100 µg/ml
  % survival at 5 min: 4.7%
Helicobacter pylori [3]; strain ATCC 43579, pH 5.0, citrate 0, nisin 100 µg/ml
  % survival at 5 min: 9.62%
Helicobacter pylori [3]; strain ATCC 43579, pH 7.0, citrate 0, nisin 100 µg/ml
  % survival at 5 min: 0.78%
E. coli strain ATCC8739; Trypticase Soy Agar supplemented with 0.1% citrate
  Nisin NIC (nominal inhibitory concentration of nisin minimally required to prevent growth): 370 µg/mL
E. coli strain ATCC8739; Trypticase Soy Agar supplemented with 0.3% citrate
  Nisin NIC (nominal inhibitory concentration of nisin minimally required to prevent growth): 123 µg/mL
E. coli strain ATCC8739; Trypticase Soy Agar supplemented with 1.0% citrate
  Nisin NIC (nominal inhibitory concentration of nisin minimally required to prevent growth): 13.7 µg/mL
E. coli strain ATCC8739; Trypticase Soy Agar supplemented with 3.0% citrate
  Nisin NIC (nominal inhibitory concentration of nisin minimally required to prevent growth): 0.06 µg/mL
E. coli strain ATCC8739; Trypticase Soy Agar with 0% citrate
  Nisin NIC (nominal inhibitory concentration of nisin minimally required to prevent growth): 3,333 µg/ml
[4]; EDTA 0
  % survival at 5 min: <5.0x10^-4%
[4]; citrate 0
  % survival at 5 min: <6.4x10^-3%
[4]; nisin by itself
  effectiveness towards C. jejuni: extremely effective
